The text below walks through data of ChEMBL document CHEMBL1201862, “PubChem BioAssay data set” (2004).

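Five concentrations, 48 hours, 96-well plates. The concentration for 50% growth inhibition is given as GI50.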 The source made the active and inactive calls. No stated cut-off is given here; in the data, active = GI50 up to about 1.1 µM and inactive = higher. Some results are limits rather than exact numbers.

Among the test systems are CCRF-CEM; NCI-H226; OVCAR-4; MCF7; HOP-92; ACHN; NCI-H522; UACC-62; SNB-19; NCI/ADR-RES; OVCAR-3; HCC 2998; SR; HCT-116; U-251; RPMI-8226; EKVX; KM12; COLO 205; HL-60.
What all share (assay): NCI-60 cell line screen, 48 h

On to `C=CC[C@@H]1C=C[C@@H](C(=O)OC)n2c(=O)n(-c3ccccc3)c(=O)n21`, for which the GI50 with CCRF-CEM, with NCI-H226, with OVCAR-4, in the test on MCF7, with HOP-92 and with ACHN was > 100 µM (inactive) in each case. Also, the GI50 in the test with NCI-H522, with UACC-62, in the test with SNB-19, in the test with NCI/ADR-RES, in the test with OVCAR-3 and with HCC 2998 was > 100 µM (inactive) each time. The GI50 with SR, in the test with HCT-116, in the test with U-251, with RPMI-8226, in the test with EKVX and in the test with KM12 was > 100 µM (inactive) each time. The GI50 with COLO 205 is > 100 µM (inactive).
On to `CO/C(=N\N=C\c1ccccc1F)c1ccncc1`, for which the GI50 with CCRF-CEM, in the test on NCI-H226, in the test with OVCAR-4, with MCF7, in the test on HOP-92 and in the test on ACHN was > 10 µM (inactive) each time. In addition, the GI50 in the test on NCI-H522, in the test on SNB-19, with NCI/ADR-RES, with OVCAR-3, with HCC 2998 and with SR was > 10 µM (inactive) throughout. In addition, the GI50 in the test on HCT-116, in the test with U-251, in the test on RPMI-8226, with EKVX, in the test with KM12 and in the test with HL-60 was > 10 µM (inactive) each time. For the same compound, in the test on COLO 205, the GI50 is > 10 µM (inactive).
Take `CCOC(=O)Nc1sc2c(c1C#N)CC(C)CC2` (centres undefined): the GI50 with NCI-H226 was 6.15 µM (inactive); in the test on OVCAR-4, 18.7 µM (inactive); with MCF7 it was 3.96 µM (inactive); in the test on HOP-92, 25.4 µM (inactive); in the test on ACHN it was 14.7 µM (inactive); with NCI-H522, 1.25 µM (inactive). Further, the GI50 in the test on UACC-62 is 4.49 µM (inactive); with SNB-19 it was 3.16 µM (inactive); with NCI/ADR-RES it was 1.96 µM (inactive); with OVCAR-3, 5.87 µM (inactive); in the test on HCC 2998, 2.24 µM (inactive); with SR, 1.4 µM (inactive). Further, the GI50 is 4 µM (inactive) in the test with HCT-116; 5.42 µM (inactive) in the test on U-251; 4.86 µM (inactive) in the test with RPMI-8226; 24.7 µM (inactive) in the test on EKVX; 3.9 µM (inactive) in the test on KM12; 0.1 µM (active) with HL-60. Also, the GI50 with COLO 205 was 4.17 µM (inactive).
Regarding `CCn1c(=O)c2cn[nH]c2n(C)c1=O`, the GI50 in the test on CCRF-CEM, with NCI-H226, in the test on OVCAR-4, with MCF7, with HOP-92 and with ACHN was > 100 µM (inactive) each time. For the same compound, the GI50 in the test on NCI-H522, in the test on UACC-62, with SNB-19, in the test with NCI/ADR-RES, in the test on OVCAR-3 and in the test with HCC 2998 was > 100 µM (inactive) throughout. Moreover, the GI50 in the test with SR, with HCT-116, with U-251, in the test on RPMI-8226, in the test with EKVX and in the test with KM12 was > 100 µM (inactive) in each case. Besides, the GI50 in the test with COLO 205 was > 100 µM (inactive).
As for `Clc1ccc(CCNCCNC2(c3cc4ccccc4s3)CCCCC2)cc1Cl`, the GI50 in the test with CCRF-CEM is 2.54 µM (inactive); in the test with NCI-H226 it was 1.87 µM (inactive); with OVCAR-4 it was 1.64 µM (inactive); in the test on MCF7, 1.71 µM (inactive); in the test on HOP-92, 1.68 µM (inactive); in the test on ACHN, 1.73 µM (inactive). Further, the GI50 in the test with NCI-H522 was 1.84 µM (inactive); with UACC-62, 1.74 µM (inactive); in the test on SNB-19, 1.92 µM (inactive); in the test with NCI/ADR-RES, 1.8 µM (inactive); with OVCAR-3, 1.45 µM (inactive); in the test with HCC 2998, 1.5 µM (inactive). The GI50 with SR is 2.02 µM (inactive); in the test on HCT-116, 1.73 µM (inactive); with U-251, 1.63 µM (inactive); in the test with RPMI-8226, 2.34 µM (inactive); in the test on EKVX it was 2.08 µM (inactive); in the test on KM12, 1.6 µM (inactive). Moreover, the GI50 in the test with COLO 205 is 1.58 µM (inactive).
`CN(C)c1ccc(C2=C([O-])c3cc(-[n+]4ccccc4)ccc3C2=O)cc1`: the GI50 in the test with CCRF-CEM, with NCI-H226, in the test with OVCAR-4, in the test with MCF7, in the test with HOP-92 and in the test on ACHN was > 100 µM (inactive) throughout. Moreover, the GI50 in the test with NCI-H522, in the test with SNB-19, with NCI/ADR-RES, in the test with OVCAR-3, with HCC 2998 and in the test with SR was > 100 µM (inactive) each time. Also, the GI50 with HCT-116, in the test with U-251, in the test on RPMI-8226, with EKVX, with KM12 and in the test on HL-60 was > 100 µM (inactive) throughout. In the test with COLO 205, the GI50 is > 100 µM (inactive).
With `CNC(=S)N1CCN(C(C)=O)C1=S`, the GI50 in the test on CCRF-CEM was 46.5 µM (inactive); with NCI-H226 it was 22.4 µM (inactive); with OVCAR-4, 6.56 µM (inactive); in the test with MCF7, 42 µM (inactive); in the test on HOP-92, 82.2 µM (inactive); with ACHN it was > 100 µM (inactive). The GI50 in the test on NCI-H522 was 45.1 µM (inactive); in the test with UACC-62 it was 43.7 µM (inactive); in the test on NCI/ADR-RES, 69.3 µM (inactive); with OVCAR-3, 35.4 µM (inactive); in the test with HCC 2998, 31.9 µM (inactive); in the test on SR, 23.7 µM (inactive). Besides, the GI50 with HCT-116 is > 100 µM (inactive); with U-251 it was 4.02 µM (inactive); in the test with EKVX, 25.1 µM (inactive); in the test with KM12, 56.9 µM (inactive); in the test with HL-60, 47.8 µM (inactive); in the test on COLO 205, 97.5 µM (inactive).
In the case of `COC1CC(OC(=O)c2ccccc2)C(OC(=O)c2ccccc2)C(C)O1` (centres undefined), the GI50 in the test with CCRF-CEM was > 100 µM (inactive); in the test with NCI-H226 it was 85.1 µM (inactive); with MCF7, > 100 µM (inactive); with HOP-92, 19.3 µM (inactive); with ACHN it was > 100 µM (inactive); in the test on NCI-H522, > 100 µM (inactive). Further, the GI50 in the test on UACC-62, in the test on SNB-19, with NCI/ADR-RES, in the test on OVCAR-3, in the test on HCC 2998 and in the test on SR was > 100 µM (inactive) throughout. Further, the GI50 in the test with HCT-116, in the test on U-251, with RPMI-8226, in the test with EKVX, in the test with KM12 and with HL-60 was > 100 µM (inactive) each time. Besides, the GI50 in the test with COLO 205 was > 100 µM (inactive).
For `COc1cc2c(c(OC)c1OC)C(=O)c1c(O)cc(C)c(OC)c1C2=O`, the GI50 with CCRF-CEM was > 10 µM (inactive); in the test with NCI-H226 it was > 100 µM (inactive); in the test on OVCAR-4 it was > 100 µM (inactive); with MCF7, > 100 µM (inactive); in the test on HOP-92 it was > 100 µM (inactive); with ACHN, 46 µM (inactive). In addition, the GI50 was 57.1 µM (inactive) in the test on NCI-H522; 77.1 µM (inactive) with SNB-19; 57.1 µM (inactive) in the test on NCI/ADR-RES; > 100 µM (inactive) in the test with OVCAR-3; > 100 µM (inactive) with HCC 2998; > 100 µM (inactive) in the test on SR. Also, the GI50 is 99.1 µM (inactive) in the test on HCT-116; 94 µM (inactive) with U-251; > 100 µM (inactive) in the test with RPMI-8226; 65 µM (inactive) in the test with EKVX; > 100 µM (inactive) with KM12; > 100 µM (inactive) with HL-60. Also, the GI50 with COLO 205 is > 100 µM (inactive).
`COc1ccc(/N=C(C)/C(C)=N/c2ccc(OC)cc2)cc1`: the GI50 was 39.1 µM (inactive) in the test with CCRF-CEM; > 100 µM (inactive) with NCI-H226; 17.7 µM (inactive) with OVCAR-4; > 100 µM (inactive) in the test with MCF7; 88.1 µM (inactive) with HOP-92; 3.36 µM (inactive) in the test on ACHN. The GI50 with NCI-H522 was > 100 µM (inactive); in the test on SNB-19, > 100 µM (inactive); with NCI/ADR-RES it was 62.8 µM (inactive); in the test on OVCAR-3, > 100 µM (inactive); in the test on HCC 2998, 20.2 µM (inactive); in the test on SR it was 65.6 µM (inactive). The GI50 in the test on HCT-116 was 72.6 µM (inactive); in the test on U-251, > 100 µM (inactive); in the test with RPMI-8226 it was 25.1 µM (inactive); with EKVX it was > 100 µM (inactive); with KM12, 6.85 µM (inactive); in the test on HL-60, 52.2 µM (inactive). The GI50 with COLO 205 was 14.4 µM (inactive).
